Assay results: paper PMC5318439, “The Novel Toll-Like Receptor 2 Agonist SUP3 Enhances Antigen Presentation and T Cell Activation by Dendritic Cells” (Frontiers in Immunology, 2017)
Where a SMILES comes first, the peptide text is derived from it. The star is where a group is joined. X1 = CCCCCCCCCCCCCCNC(=O)OC[C@H](C*)OC(=O)NCCCCCCCCCCCCCC; Palmitoyl = CCCCCCCCCCCCCCCC(=O)*

How the values were obtained:
[1] = tested on: NF-κB and MAPK pathways; assay: Immunoblot of NF-κB and MAPK signaling in CD8+ cDCs; assay type: cell-based, mice; settings: 200 nM, 0–120 min, western blot
Experimental: Immunoblot assay was performed as described elsewhere ([40], [41]). Briefly, whole-cell lysates were prepared by direct lysis in SDS loading buffer. Lysates were separated by 10% SDSPAGE and transferred to a polyvinylidene fluoride membrane (Millipore IPVH00010) for probing with antibody. Antibodies against phosphorylated NF-κB p65 (p-p65) (Ser 536) (Clone 93H1), p-SAPK/JNK (Thr183/Tyr185) (Clone 81E11), SAPK/JNK (Clone 56G8), p-p38 (Thr180/Tyr182) (Clone 3D7), and p38 (Clone D13E1) were purchased from Cell Signaling Technology. Antibodies against IκBα ([…]), p-ERK (Clone E-4), and ERK (Clone K-23) were purchased from Santa Cruz Biotech. The chemiluminescence signals were captured by Amersham Image 600 system (GE Healthcare).
Figure 4 SUP3 stimulated maturation of CD8^+ conventional dendritic cells (cDCs). (A) Purified CD8^+ cDCs were treated with SUP3 (200 nM) or Pam3 (200 nM) in the presence of granulocyte-macrophage colony-stimulating factor (GM-CSF) (20 ng/mL) for 24 h. The surface expression of costimulatory and major histocompatibility complex (MHC) molecules were then analyzed by flow cytometry. Representative data from three independent experiments were shown. […] Splenic CD8^+ cDCs were enriched, and surface expression of CD40 and CD86 was analyzed by flow cytometry. […] Supernatants were harvested 24 and 48 h post-stimulation, and cytokines were measured by ELISA. […]

[2] = tested on: OT-II CD4^+ T cells; assay: OT-II CD4+ T cell activation in vivo; set-up: species or system mice; settings: OVA 100 µg per mouse s.c. with 2 nmol per mouse, 3 days; vs Pam3
Experimental: Carboxyfluorescein diacetate succinimidyl ester-stained OT-II CD4^+ T cells (2 × 10^6 cells per mouse) were transferred into mice 1 day prior immunization. Then the recipients were subcutaneously (s.c.) injected with OVA alone (100 µg per mouse), or OVA mixed with SUP3 (2 nmol per mouse) or Pam3 (2 nmol per mouse) at groin. Three days after immunization, OT-II CD4^+ T cells from inguinal lymph nodes were analyzed by flow cytometry.
Figure 5 SUP3 enhanced antigen presentation ability of CD11b^+ conventional dendritic cells (cDCs) and production of antibodies against thymus-dependent (TD) antigens. […] Three days after immunization, division of OT-II CD4^+ T cells from inguinal lymph nodes were analyzed by flow cytometry (B). Absolute numbers of proliferated OT-II CD4^+ T cells were calculated in (C). […] Cells were then thoroughly washed and cocultured with CFSE-stained OT-II CD4^+ T cells for 4 days and analyzed by flow cytometry. (D) The division of OT-II cells was measured by reduced level of CFSE-labeling. (E) Absolute numbers of proliferated T cells from (D) were calculated. (F) SUP3 (2 nmol per mouse), Pam3 (2 nmol per mouse), or PBS were i.v. injected into mice for 1 h, and splenic CD11b^+ cDCs were enriched and analyzed for CD86 expression by flow cytometry. […] The cytokines from supernatant were determined by ELISA (*p < 0.05, **p < 0.01). […]

CCCCCCCCCCCCCCCC(=O)N[C@@H](CSC[C@@H](COC(=O)NCCCCCCCCCCCCCC)OC(=O)NCCCCCCCCCCCCCC)C(=O)NCC(=O)N[C@@H](CCCCN)C(=O)N[C@@H](CCCCN)C(=O)N[C@@H](CCCCN)C(=O)O [SUP3, (2S,5S,8S,14R,18R)-2,5,8-tris(4-aminobutyl)-4,7,10,13,21-pentaoxo-14-palmitamido-18-((tetradecylcarbamoyl)oxy)-20-oxa-16-thia-3,6,9,12,22-pentaazahexatriacontan-1-oic acid] (Palmitoyl-C(X1)GKKK-OH)
NF-κB and MAPK signaling (p-p65, IκBα, p-ERK, p-JNK, p-p38) in CD8+ cDCs [1]: induced phosphorylation of p65 and degradation of IκBα and enhanced phosphorylation of ERK, JNK, and p38
proliferation of OT-II CD4+ T cells in draining lymph nodes [2]: more proliferation of OT-II CD4^+ T cells than that with Pam3
